In US20220062340A1, “IMMUNOTHERAPEUTIC METHODS AND COMPOSITIONS” (KING'S COLLEGE LONDON, priority 2018, published 2022):
“And” between values parts separate entries of the source, which are not always exact repeats. Equal entries are not always repeated.

Key:
CD62L on Tregs = assay: CD62L expression following ex vivo expansion; type: cell-based, human; settings: FIG. 9
Source text: To address the balance between regulatory and effector T cells in the lamina propria of patients with CD, we sought to develop a highly suppressive, phenotypically stable population of autologous ex vivo expanded Tregs that were licensed to traffic to the gut by high level expression of α4β7. These cells could then be utilized as an autologous cell-based therapy for CD. We compared the efficacy of ATRA with RAR568 at inducing α4β7, to determine which agent would be more suitable for downstream application in a clinical trial of Treg therapy for CD. As previously defined^22, our standard culture conditions used the CD4^+CD25^hiCD127^loCD45RA^+ nïave Treg subset, cultured in the presence of rapamycin (RAPA) and high dose IL-2. […] Additionally, cells cultured in the presence of RAR568 cumulatively expressed more α4β7 than those cultured in the presence of ATRA (95.89±1.93 vs 74.21±25.89, p=0.024; FIG. 2b). […] The expression of CD62L, required for homing to the lymph nodes and the effective interaction between integrin α4β7 and its ligand MAdCAM-1 was maintained following ex vivo expansion, irrespective of retinoid treatment (FIG. 9).

integrin β7 on Tregs = assay: Dose response of integrin β7 induction on expanded Tregs; type: cell-based; settings: Homo sapiens; Tregs in in vitro culture, FIG. 2c; read-out: EC50 to induce the expression of integrin β7
Protocol: (§1) FACS-sorted Treg populations were plated at 1×10^6 or 0.5×10^6 in X-VIVO-15 medium and activated with anti-CD3/anti-CD28 coated beads (Dynabeads®, Invitrogen, Paisley, UK) at 1:1 bead: cell ratio. Rapamycin was added at day 0 of culture at a final concentration of 100 nM/L +/−ATRA 1 nM/L or RAR568 1 nM/L. Next, 1,000 IU/ml recombinant human IL-2 (rhlL-2) (Proleukin®, Novartis, Camberley, UK) was added at day 5 of culture. Cells were re-stimulated every 10-12 days and expanded for a total of 24-30 days. The phenotype and suppressive ability were assessed at the end of the culture period.
(§2) Flow cytometry panels have been designed to assess the subtypes of regulatory T cells in patients with CD as well as their expression of gut homing molecules. Gating was performed based on natural populations when assessing for CD4^+CD25^highCD127low populations, as well as for CD45RA^+ Treg populations. Additionally, to minimize bias in the assessment of expression of gut homing markers and transcription factors, a fluorochrome minus one (FMO) panel was added for each marker of interest in each experiment that was performed.

Ex vivo expanded Tregs = assay: IL-17 and IFNγ production under pro-inflammatory cytokine challenge (ELISA); type: cell-based, human; settings: Tregs expanded ex vivo in the presence of the agonist, FIG. 2f
Protocol: Cytokine concentrations were measured using the Ready-SET-Go sandwich ELISA kits from eBioscience.
Ex vivo expanded Tregs were activated with CD3/CD28 beads at a 1:20 ratio and cultured at 10^6cells/m1 in X-VIVO for 5 days at 37° C./5% CO2, supplemented with the following cytokine cocktail: A) IL-2 (10 IU/mL, Proleukin); (B) IL-2, IL-1 (10 ng/mL), IL-6 (4 ng/mL) and transforming growth factor-β (TGF-β (5 ng/mL), IL-21 (25 ng/mL), IL-23 (25 ng/mL) (all R&D Systems). Supernatant IL-17 and interferon gamma (IFNγ) concentrations were measured by ELISA.

integrin α4β7 on Tregs = assay: α4β7 expression on ex vivo expanded CD45RA+ Tregs from CD patients (flow cytometry); type: cell-based, human; settings: CD4+CD25hiCD127loCD45RA+ Tregs cultured with rapamycin and high dose IL-2 plus the agonist; mean ± SD
Protocol: “Complete X-VIVO-15” (Lonza, Walkersville, MD) was used for ex vivo Treg expansion, Treg cytokine challenge experiments and Treg suppression assays. This was supplemented with 100 nM or 10 nM Rapamycin and all-trans retinoic acid (ATRA) 2 μM or 1 nM, or Rapamycin and RAR568 1 nM.
as §1
as §2, with “performed. […]” for “performed.”

- EC50 (integrin β7 on Tregs): 0.01 nM
Compound: CCOc1c(Cl)cc(C(=O)Nc2ccc(C(=O)O)c(C)c2)cc1OC(C)C [RAR568]
- expression of CD62L following expansion (CD62L on Tregs): not affected
- IFNγ production following pro-inflammatory cytokine challenge (Ex vivo expanded Tregs): did not produce
- IL-17 production following pro-inflammatory cytokine challenge (Ex vivo expanded Tregs): did not produce
- α4β7 expression of expanded Tregs (integrin α4β7 on Tregs): 95.9±1.93 and 95.89±1.93
